Laboratory results taken from US10106556B2, “Heterocyclic compound” (TAKEDA PHARMACEUTICAL COMPANY LIMITED, priority 2015, dated 2018).

Target: T1, His-hMAGL (recombinant polyhistidine tagged human MAGL protein) (Homo sapiens, UniProt Q99685)
T1 construct: made in house; host or cells: E. coli BL21(DE3)
T1 sequence (Q99685 1-303): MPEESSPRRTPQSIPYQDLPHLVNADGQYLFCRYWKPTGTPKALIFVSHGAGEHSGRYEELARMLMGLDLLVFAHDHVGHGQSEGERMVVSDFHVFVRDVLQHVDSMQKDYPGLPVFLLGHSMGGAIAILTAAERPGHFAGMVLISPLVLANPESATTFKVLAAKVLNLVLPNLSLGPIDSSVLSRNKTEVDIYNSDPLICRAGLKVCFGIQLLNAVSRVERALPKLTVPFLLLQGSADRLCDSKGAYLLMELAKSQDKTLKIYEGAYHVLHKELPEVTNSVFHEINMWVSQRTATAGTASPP
Assay: Measurement of MAGL inhibitory activity (arachidonic acid production from 2-arachidonylglycerol, RapidFire-mass spectrometry)
Assay type: biochemical
Conditions: MAGL inhibitory rate at 10 μM test compound; 60 min preincubation with His-hMAGL, 2-arachidonylglycerol substrate, 10 min reaction at room temperature
Procedure, shortened: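 Recombinant His-tagged human MAGL converted 2-arachidonylglycerol to arachidonic acid. Reactions received acetonitrile with 3 μM arachidonic acid-d8 as internal standard, and product was quantified by RapidFire SPE (C4) with negative-mode SRM mass spectrometry. Percent inhibition was calculated against compound-free and enzyme-free controls.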

SMILES	inhibition at 10 µM
N#Cc1ccccc1COC1CN(C(=O)c2cc3c(cc2F)OCC(=O)N3)C1 [Example 333, 2-(((1-((7-fluoro-3-oxo-3,4-dihydro-2H-1,4-benzoxazin-6-yl)carbonyl)azetidin-3-yl)oxy)methyl) benzonitrile]	101%
N#Cc1cccc(COC2CN(C(=O)c3cc4c(cc3F)OCC(=O)N4)C2)c1 [Example 334, 3-(((1-((7-fluoro-3-oxo-3,4-dihydro-2H-1,4-benzoxazin-6-yl)carbonyl)azetidin-3-yl)oxy)methyl) benzonitrile]	98%
N#Cc1ccc(COC2CN(C(=O)c3cc4c(cc3F)OCC(=O)N4)C2)cc1 [Example 335, 4-(((1-((7-fluoro-3-oxo-3,4-dihydro-2H-1,4-benzoxazin-6-yl)carbonyl)azetidin-3-yl)oxy)methyl) benzonitrile]	102%
O=C1COc2cc(F)c(C(=O)N3CC(OCc4cccc(Cl)c4)C3)cc2N1 [Example 336, 6-((3-((3-chlorobenzyl)oxy)azetidin-1-yl)carbonyl)-7-fluoro-2H-1,4-benzoxazin-3(4H)-one]	101%
CS(=O)(=O)c1ccc(COC2CN(C(=O)c3cc4c(cc3F)OCC(=O)N4)C2)cc1 [Example 337, 7-fluoro-6-((3-((4-(methylsulfonyl)benzyl)oxy)azetidin-1-yl)carbonyl)-2H-1,4-benzoxazin-3(4H)-one]	92%
O=C1COc2cc(F)c(C(=O)N3CC(OCc4ccc(-n5cccn5)cc4)C3)cc2N1 [Example 338, 7-fluoro-6-((3-((4-(1H-pyrazol-1-yl)benzyl)oxy)azetidin-1-yl)carbonyl)-2H-1,4-benzoxazin-3(4H)-one]	101%
O=C1COc2cc(F)c(C(=O)N3CC(OCc4cccc(C(F)F)c4)C3)cc2N1 [Example 339]	103%
O=C1COc2cc(F)c(C(=O)N3CC(OCc4cccc(OC(F)F)c4)C3)cc2N1 [Example 340]	100%
O=C1COc2cc(F)c(C(=O)N3CC(OCc4ccccc4OC(F)F)C3)cc2N1 [Example 341]	101%
O=C1COc2cc(F)c(C(=O)N3CC(OCc4ccccc4Cl)C3)cc2N1 [Example 342, 6-((3-((2-chlorobenzyl)oxy)azetidin-1-yl)carbonyl)-7-fluoro-2H-1,4-benzoxazin-3(4H)-one]	102%

The next lines start with the values.

inhibition at 10 µM	SMILES
102%	O=C1COc2cc(F)c(C(=O)N3CC(OCc4ccc(Cl)cc4)C3)cc2N1 [Example 343, 6-((3-((4-chlorobenzyl)oxy)azetidin-1-yl)carbonyl)-7-fluoro-2H-1,4-benzoxazin-3(4H)-one]
99%	O=C1COc2cc(F)c(C(=O)N3CC(OCc4ccc5scnc5c4)C3)cc2N1 [Example 344, 6-((3-(1,3-benzothiazol-5-ylmethoxy)azetidin-1-yl)carbonyl)-7-fluoro-2H-1,4-benzoxazin-3(4H)-one]
101%	O=C1COc2cc(F)c(C(=O)N3CC(OCc4ccc(C(F)(F)F)cc4F)C3)cc2N1 [Example 345, 7-fluoro-6-((3-((2-fluoro-4-(trifluoromethyl)benzyl)oxy)azetidin-1-yl)carbonyl)-2H-1,4-benzoxazin-3(4H)-one]
101%	O=C1COc2cc(F)c(C(=O)N3CC(OCc4ccc5c(c4)CCCC5)C3)cc2N1 [Example 346, 7-fluoro-6-((3-(5,6,7,8-tetrahydronaphthalen-2-ylmethoxy)azetidin-1-yl)carbonyl)-2H-1,4-benzoxazin-3(4H)-one]
102%	COc1ccc(COC2CN(C(=O)c3cc4c(cc3F)OCC(=O)N4)C2)c(Cl)c1 [Example 347, 6-((3-((2-chloro-4-methoxybenzyl)oxy)azetidin-1-yl)carbonyl)-7-fluoro-2H-1,4-benzoxazin-3(4H)-one]
100%	COc1ccc(COC2CN(C(=O)c3cc4c(cc3F)OCC(=O)N4)C2)cc1F [Example 348, 7-fluoro-6-((3-((3-fluoro-4-methoxybenzyl)oxy)azetidin-1-yl)carbonyl)-2H-1,4-benzoxazin-3(4H)-one]
100%	O=C1COc2cc(F)c(C(=O)N3CC(OCc4ccc(Cl)cc4F)C3)cc2N1 [Example 349, 6-((3-((4-chloro-2-fluorobenzyl)oxy)azetidin-1-yl)carbonyl)-7-fluoro-2H-1,4-benzoxazin-3(4H)-one]
101%	Cc1ccc(COC2CN(C(=O)c3cc4c(cc3F)OCC(=O)N4)C2)c(F)c1 [Example 350, 7-fluoro-6-((3-((2-fluoro-4-methylbenzyl)oxy)azetidin-1-yl)carbonyl)-2H-1,4-benzoxazin-3(4H)-one]
99%	O=C1COc2cc(F)c(C(=O)N3CC(OCc4ccc(C(F)(F)F)c(F)c4)C3)cc2N1 [Example 351, 7-fluoro-6-((3-((3-fluoro-4-(trifluoromethyl)benzyl)oxy)azetidin-1-yl)carbonyl)-2H-1,4-benzoxazin-3(4H)-one]
101%	O=C1COc2cc(F)c(C(=O)N3CC(OCc4ccc(C(F)F)cc4F)C3)cc2N1 [Example 352, 6-((3-((4-(difluoromethyl)-2-fluorobenzyl)oxy)azetidin-1-yl)carbonyl)-7-fluoro-2H-1,4-benzoxazin-3(4H)-one]
100%	O=C1COc2cc(F)c(C(=O)N3CC(OCc4ccc(N5CC(F)C5)cc4Cl)C3)cc2N1 [Example 353, 6-((3-((2-chloro-4-(3-fluoroazetidin-1-yl)benzyl)oxy)azetidin-1-yl)carbonyl)-7-fluoro-2H-1,4-benzoxazin-3(4H)-one]
102%	CC(OC1CN(C(=O)c2cc3c(cc2F)OCC(=O)N3)C1)c1ccc(F)cc1 (stereo not drawn) [Example 354, 7-fluoro-6-((3-(1-(4-fluorophenyl)ethoxy)azetidin-1-yl)carbonyl)-2H-1,4-benzoxazin-3(4H)-one]
101%	O=C1COc2ccc(C(=O)N3CCC(C(F)(F)c4ccc(F)cc4)CC3)cc2N1 [Example 355, 6-((4-(difluoro(4-fluorophenyl)methyl)piperidin-1-yl)carbonyl)-2H-1,4-benzoxazin-3(4H)-one]
102%	O=C1COc2cc(F)c(C(=O)N3CC(CC(F)(F)c4ccc(F)cc4Cl)C3)cc2N1 [Example 356, 6-((3-(2-(2-chloro-4-fluorophenyl)-2,2-difluoroethyl)azetidin-1-yl)carbonyl)-7-fluoro-2H-1,4-benzoxazin-3(4H)-one]
